Assay results from patent US9539237B2, “Compositions and methods for drug-sensitization or inhibition of a cancer cell” (The Texas A&M University System, priority 2012, dated 2017).
Where two headings read alike, the source gives them in different places. Numbered stars: 1 amine (or outer) side, 2 acyl side, 3 side chain; on linkers, the order of the positions; unused ones are H or OH. Bridge positions count the residues as written; N and C are the ends. Square brackets hold non-standard residues; d marks the D form. Peptide text beside a SMILES is read from it. I, II: the chains in the order shown. Actinocin(9to1) = Cc1c2oc3c(C)ccc(C(=O)[*:1])c3nc-2c(C(=O)[*:2])c(N)c1=O; NMeV = CN[C@H](C(=O)O)C(C)C; Sar = CNCC(=O)O

Key:
[1] = tested on: multi-drug resistant ovarian cancer cell line NCI/ADR-RES; assay: Cell growth assay on NCI/ADR-RES cells; type: cell-based
Excerpt: (§1) In these experiments, the following cell lines were used: CHOP-resistant NHL cell line G3, CHOP-sensitive NHL cell line CRL2631, the multi-drug resistant sarcoma cell line MES-SA-Dx5; multi-drug-resistant breast cancer cell line MDA-MB-231, multi-drug resistant ovarian carcinoma cell line SK-OV3, multi-drug resistant ovarian cancer cell line NCI/ADR-RES, drug-sensitive ovarian cancer cell line OVCAR-5, and multi-drug resistant ovarian cancer cell line OVCAR-3.
(§2) Additional cell lines used include: ovarian cancer OVCAR-8. T lymphoblastoid leukemia MOLT-4, dexamethasone-resistant multiple myeloma MM.1R, myeloid leukemia cells HL-60, osteosarcoma cells U-2 OS, and myeloma RPMI 8226.

[2] = tested on: multi-drug resistant sarcoma cell line MES-SA-Dx5; assay: Cell growth assay on MES-SA-Dx5 cells; type: cell-based
Excerpt: as §1, §2

[3] = tested on: CHOP-resistant G3 NHL cells; assay: Cell growth assay (resazurin fluorescence) on G3 cells; type: cell-based, human; details: for Magnitude of potentiation in combination with doxorubicin: G3; for IC50: Homo sapiens
Protocol: Compositions were tested on CHOP-resistant G3 NHL cells that had been cultivated in RPMI medium for five days. Prior to assay, the cells were counted by haemocytometer and cell concentration standardized to 625,000 cells/ml. Test drugs were solubilized in 100% DMSO and then diluted to final assay concentration with 0.1M phosphate buffered saline (PBS) and a final DMSO concentration of 0.5%. […] The metabolic dye rezasurin was added to the wells of the assay plate at a final concentration of 20 μg/ml and the plates were incubated for an additional 24 hours. The plates were then read in a BMG Polarstar plate reader at wavelength (573-605) and the data plotted as OD versus increasing dilutions (i.e., decreasing total amounts) of rifabutin derivative concentration.
as §1, with “OVCAR-3. […]” for “OVCAR-3.”

[4] = tested on: drug-sensitive ovarian cancer cell line OVCAR-5; assay: Cell growth assay on OVCAR-5 cells; type: cell-based
Excerpt: as §1, §2

[5] = tested on: multi-drug resistant ovarian cancer cell line OVCAR-3; assay: Cell growth assay on OVCAR-3 cells; type: cell-based
Excerpt: as §1, §2

[6] = tested on: multi-drug resistant ovarian carcinoma cell line SK-OV3; assay: Cell growth assay on SK-OV3 cells; type: cell-based, human
Excerpt: as §1, with “OVCAR-3. […]” for “OVCAR-3.”

[7] = tested on: T lymphoblastoid leukemia MOLT-4; assay: Cell growth assay on MOLT-4 cells; type: cell-based; details: with Rifabutin vs drug alone
Excerpt: as §2

[8] = tested on: total intracellular ROS; assay: Intracellular ROS by CellROX staining and flow cytometry; type: cell-based; details: for Induction of ROS: OVCAR8, ADR-RES and G3 cells, 2 hrs, 10 uM, FIG. 38
Excerpt: Cells were then stained with the fluorescent ROS indicator, CellROX, and subjected to flow cytometry to quantitate total intracellular ROS.
The electron transport chain (ETC) is known to be a primary generator of ROS in the cell. Most of the ROS is generated by Complexes I and III of the ETC. Inhibition of Complex I results in electrons piling up and leaking to react with oxygen to produce ROS.
(§3) MDR/P-gp activity is closely associated with calcium status in the cell, so calcium modulators were tested for effects on ROS. […] Relatively Dox-sensitive lymphoma (CRL2631, 10S, WSU) and ovarian carcinoma (OVCAR8) and more Dox-resistant lymphoma (G3R, 10R, WSUR) and ovarian carcinoma (ADR) were treated with 10 uM […] for 2 hrs. […] Cells were co-stained with the cell-permeable red fluorescent ROS indicator, CellROX, and cell-permeable green fluorescent calcium indicator. Fluo-4AM, and then subjected to flow cytometry to quantitate changes in ROS and calcium levels.
(§4) All samples were analyzed at the same time in flow cytometry.

[9] = tested on: calcium mobilization; assay: Calcium mobilization by Fluo-4AM staining and flow cytometry; type: cell-based
Protocol: as §3, §4

[10] = tested on: primary human fibroblasts; assay: Comparative cytotoxicity on primary human fibroblasts; details: FIG. 3A and 3B
[11] = Pharmacokinetics (plasma concentration, half-life, tissue absorption); details: after administration
[12] = tested on: multi-drug-resistant breast cancer cell line MDA-MB-231; assay: Cell growth assay on MDA-MB-231 cells; type: cell-based
Excerpt: as §1, §2

[13] = tested on: multi-drug resistant ovarian cancer cell line (NCI/ADR-RES) xenografts; assay: NCI/ADR-RES xenograft efficacy studies in nude mice; type: in vivo; details: DOXIL 7 mg/kg i.v. + RTI-79 25 mg/kg oral
Excerpt: In a sixth efficacy study, we generated xenografts of multi-drug resistant ovarian cancer cell line (NCI/ADR-RES) by implantation of NCI/ADR-RES cell xenografts in the left and right flanks of nude mice, resulting in two tumors per mice. […] Tumor size was monitored.
In a seventh efficacy study, we generated xenografts of multi-drug resistant ovarian cancer cell line (NCI/ADR-RES) by implantation of NCI/ADR-RES cells xenografts in the left and right flanks of nude mice, resulting in two tumors per mouse. […] Tumor size was monitored.

[14] = tested on: VEGF; assay: VEGF secretion ELISA in U2-OS cells; type: cell-based; details: RTI-79
[15] = mice treated with RTI-79 with or without DOX
Protocol: Swiss mice were dosed with levels equal to and exceeding that of intended doses.

[16] = tested on: MMP2; assay: MMP2 secretion ELISA in U2-OS cells; type: cell-based; details: 5 uM RTI-79

Molecule | Magnitude of potentiation in combination with doxorubicin [1] | Magnitude of potentiation in combination with doxorubicin [2] | Magnitude of potentiation in combination with doxorubicin [3] | Magnitude of potentiation in combination with doxorubicin [4] | Magnitude of potentiation in combination with doxorubicin [5] | Magnitude of potentiation in combination with doxorubicin [6] | Induction of ROS [8] | Toxicity to normal cells [10] | other results
CO[C@H]1/C=C/O[C@@]2(C)Oc3c(C)c(O)c4c(c3C2O)C2=NC3(CCN(C(=O)OCC(C)C)CC3)NC2=C(NC(=O)/C(C)=C\C=C\[C@H](C)[C@H](O)[C@@H](C)[C@@H](O)[C@@H](C)[C@H](OC(C)=O)[C@@H]1C)C4=O (stereo partly drawn) [RTI-175, 11-deoxy-11-hydroxy-4-deoxy-3,4[2-spiro-[1-(isobutyloxycarbonyl)-piperidin-4-yl]]-(1H)-imidazo-(2,5-dihydro)rifamycin S] | ++ (++ potentiation between 2.1 to 5 fold increase) | + (+ potentiation between 1.2 to 2.0 fold increase) | ++ (++ potentiation between 2.1 to 5 fold increase) | ++ (++ potentiation between 2.1 to 5 fold increase) | + (+ potentiation between 1.2 to 2.0 fold increase) | +++ (+++ potentiation greater than 5 fold increase) | – | – | IC50 [3]: > 64 µM; IC50 ([3]; read-out: IC50 (μM) with doxorubicin (1 μM)): 1.06 µM
Cc1c2oc3c(C)ccc(C(=O)N[C@@H]4C(=O)N[C@H](C(C)C)C(=O)N5CCC[C@H]5C(=O)N(C)CC(=O)N(C)[C@@H](C(C)C)C(=O)O[C@@H]4C)c3nc-2c(C(=O)N[C@@H]2C(=O)N[C@H](C(C)C)C(=O)N3CCC[C@H]3C(=O)N(C)CC(=O)N(C)[C@@H](C(C)C)C(=O)O[C@@H]2C)c(N)c1=O [Actinomycin D, actinomycin D, reference compound] (I: T[dV]P[Sar][NMeV] / II: T[dV]P[Sar][NMeV]; ester I:1-I:C, II:1-II:C; linker I:N-II:N via Actinocin(9to1)) | – | – | – | – | – | – | – | – | Fold increase in potency [7]: >5 fold; Fold increase in potency ([2]; with Rifabutin vs drug alone): 3 fold
COc1cc2c(cc1OC)CN(CCc1ccc(NC(=O)c3cccc4c(=O)c5cccc(OC)c5[nH]c34)cc1)CC2 [elacridar] | – | – | – | – | – | – | induced ROS | – | Induction of ROS relative to control drugs ([8]; ADR and OVCAR8 cells, FIG. 41A): induced ROS; Induction of calcium ([9]; FIG. 41B): induced calcium
11-deoxy-11-amino-4-deoxy-3,4[2-spiro-[1-(isobutyloxycarbonyl)-piperidin-4-yl]]-(1H)-imidazo-(2,5-dihydro)rifamycin S [RTI-176] | – | – | +++ (+++ potentiation greater than 5 fold increase) | + (+ potentiation between 1.2 to 2.0 fold increase) | – | +++ (+++ potentiation greater than 5 fold increase) | – | not toxic | Fold increase in potency over DOX alone ([3]; lymphoma cell line G3): 5.2 fold
4-deoxy-3,4[2-spiro-[1-(isobutyloxycarbonyl)-piperidin-4-yl]]-(1H)-imidazo-(2,5-dihydro)rifamycin S [RTI-79] | ++ (++ potentiation between 2.1 to 5 fold increase) | ++ (++ potentiation between 2.1 to 5 fold increase) | ++ (++ potentiation between 2.1 to 5 fold increase) | + (+ potentiation between 1.2 to 2.0 fold increase) | + (+ potentiation between 1.2 to 2.0 fold increase) | +++ (+++ potentiation greater than 5 fold increase) | induced ROS | not toxic | Time after exposure at which increases in ROS were seen ([8]; G3 cells, 10 uM RTI-79): 1 min; Time to maximal plasma concentration [11]: ≤ 3 h; Magnitude of potentiation in combination with doxorubicin [12]: + (+ potentiation between 1.2 to 2.0 fold increase); Tumor volume lower than in mice receiving only DOXIL ([13]; seventh study, after 46 days): 55%; Tumor volume reduction during the course of the study ([13]; seventh study): 50%; Tumor volume lower than in mice receiving only DOXIL ([13]; sixth study, after 41 days): 66%; VEGF secretion [14]: 436 pg/million cells; Time of treatment before calcium mobilization occurred ([9]; G3 cells, 10 uM RTI-79): > 15 min; Heart tissue histology (H&E) and complete blood count and manual differential [15]: no significant differences; MMP2 secretion [16]: 10.5 ng/million cells
